# According to patent US20240246951A1, “COMPOUND HAVING BIOLOGICAL ACTIVITY SUCH AS ANTIVIRAL ACTIVITY” (NATIONAL CENTER FOR GLOBAL HEALTH AND MEDICINE, priority 2021, published 2024):
# Where two headings read alike, the source gives them in different places.
# Columns and labels:
# [1] = target: Mpro/3CL protease of SARS-CoV-2 (Severe acute respiratory syndrome coronavirus 2 (2019-nCoV) (SARS-CoV-2), UniProt P0DTD1); assay: Mpro/3CL protease enzyme inhibitory activity, FRET assay kit; format: biochemical; conditions: fluorogenic substrate, 25° C.
# SARS-CoV-2WK-521 = assay: microbe, parasite or virus in culture; format: cell-based; conditions: for times more excellent EC50 value as compared with PF-7321332: ratio of EC50 values; for times more excellent EC99 value as compared with PF-7321332: ratio of EC99 values
# [2] = Cytotoxicity test, MTT assay; format: cell-based; conditions: African green monkey, Vero E6 cells
# Experimental: (§1) The cytotoxicity test of the test compounds was conducted using Vero E6 cells. Specifically, Vero E6 cells were inoculated in a 96 well plate to be 1×10^4 cells/well, and cultured under standard culture conditions of 3 days, 37° C., and 5% CO2 together with media supplemented with each test compound of each concentration after serial dilution. Thereafter, the viable cell count of each well was quantified by MTT assay to calculate 50% cytotoxicity concentration (CC50).
# in vivo = conditions: mouse, 2 mg/kg; for half-life: iv; for bioavailability: po, bioavailability (BA)
# Vero E6 cells = assay: Cytotoxicity test, MTT assay; format: cell-based; conditions: 3 days
# Experimental: as §1
# [3] = Severe acute respiratory syndrome coronavirus 2, Vero C1008, 72 h, Vero E6 cells, MOI 0.05, 3 days, read-out: EC50
# [4] = Vero E6 cells, MOI 0.05, 3 days
# [5] = Severe acute respiratory syndrome coronavirus 2, Vero C1008, 72 h, read-out: EC50
Structure (SMILES),CC50 at 3 days [2],EC99 (SARS-CoV-2WK-521),EC50 (SARS-CoV-2WK-521; read-out: EC50),CC50 (Vero E6 cells),also measured
"CC1(C)[C@@H]2[C@@H](C(=O)N[C@@H](C[C@@H]3CCNC3=O)C(=O)c3nc4c(F)cccc4s3)N(C(=O)c3cc4c(F)ccc(F)c4[nH]3)C[C@@H]21 [Compound 243, (1R,2S,5S)-3-(4,7-difluoro-1H-indole-2-carbonyl)-N-((S)-1-(4-fluorobenzo[d]thiazol-2-yl)-1-oxo-3-((S)-2-oxopyrrolidin-3-yl)propan-2-yl)-6,6-dimethyl-3-azabicyclo[3.1.0]hexane-2-carboxamide]",> 100000 nM,–,–,–,IC50 [1]: 800 nM; EC50 (SARS-CoV-2WK-521; [3]): 750 nM; EC99 (SARS-CoV-2WK-521; [4]): 9.4 µM
"COc1ccc(F)c2[nH]c(C(=O)N3C[C@H]4[C@@H]([C@H]3C(=O)N[C@@H](C[C@@H]3CCNC3=O)C(=O)c3nc5c(F)cccc5s3)C4(C)C)cc12 [Compound 244, (1R,2S,5S)-3-(7-fluoro-4-methoxy-1H-indole-2-carbonyl)-N-((S)-1-(4-fluorobenzo[d]thiazol-2-yl)-1-oxo-3-((S)-2-oxopyrrolidin-3-yl)propan-2-yl)-6,6-dimethyl-3-azabicyclo[3.1.0]hexane-2-carboxamide]",> 100000 nM,–,–,–,IC50 [1]: 600 nM; EC50 (SARS-CoV-2WK-521; [3]): 600 nM; EC99 (SARS-CoV-2WK-521; [4]): 0.99 µM
"CC(C)(C)[C@H](NC(=O)C(F)(F)F)C(=O)N1C[C@H]2[C@@H]([C@H]1C(=O)N[C@@H](C[C@@H]1CCNC1=O)C(=O)c1nc3c(F)cccc3s1)C2(C)C [Compound 245, (1R,2S,5S)-3-((S)-3,3-dimethyl-2-(2,2,2-trifluoroacetamido)butanoyl)-N-((S)-1-(4-fluorobenzo[d]thiazol-2-yl)-1-oxo-3-((S)-2-oxopyrrolidin-3-yl)propan-2-yl)-6,6-dimethyl-3-azabicyclo[3.1.0]hexane-2-carboxamide]",> 100000 nM,0.95 µM,–,–,"half-life (in vivo): ≥ 45 min; bioavailability (in vivo): ≥ 31%; bioavailability (in vivo; same experiment conducted again, mice, 2 mg/kg P.O. vs I.V., calculated from AUC of FIG. 2): 47.7%; EC75 (SARS-CoV-2WK-521): 290 nM; EC50 (SARS-CoV-2WK-521; [5]): 80 nM; suppression of proliferation of SARS-CoV-2 (SARS-CoV-2WK-521; concentration of 1 μM): almost completely suppressed; times more excellent EC50 value as compared with PF-7321332 (SARS-CoV-2WK-521): ≥ 20 times; times more excellent EC99 value as compared with PF-7321332 (SARS-CoV-2WK-521): about 10 times"
"CC(C)(C)[C@H](NC(=O)C(F)(F)F)C(=O)N1C[C@H]2[C@@H](C1C(=S)N[C@@H](C[C@@H]1CCNC1=O)C(=O)c1nc3c(F)cccc3s1)C2(C)C (stereo partly drawn) [Compound 245s, 2,2,2-trifluoro-N-((S)-1-((1R,2S,5S)-2-(((S)-1-(4-fluorobenzo[d]thiazol-2-yl)-1-oxo-3-((S)-2-oxopyrrolidin-3-yl)propan-2-yl)carbamothioyl)-6,6-dimethyl-3-azabicyclo[3.1 0.0]hexan-3-yl)-3,3-dimethyl-1-oxobutan-2-yl)acetamide]",–,–,–,–,EC75 (SARS-CoV-2WK-521; [4]): 550 nM; EC99 (SARS-CoV-2WK-521; [4]): 0.98 µM; times more excellent EC99 value as compared with PF-7321332 (SARS-CoV-2WK-521): about 10 times
"CC(C)(C)[C@H](NC(=O)C(F)(F)F)C(=O)N1C[C@H]2[C@@H]([C@H]1C(=S)N[C@@H](C[C@@H]1CCNC1=O)C(=O)c1nc3c(F)cccc3s1)C2(C)C [Compound 245s, 2,2,2-trifluoro-N-((S)-1-((1R,2S,5S)-2-(((S)-1-(4-fluorobenzo[d]thiazol-2-yl)-1-oxo-3-((S)-2-oxopyrrolidin-3-yl)propan-2-yl)carbamothioyl)-6,6-dimethyl-3-azabicyclo[3.1 0.0]hexan-3-yl)-3,3-dimethyl-1-oxobutan-2-yl)acetamide]",> 100000 nM,–,–,–,IC50 [1]: 300 nM; EC50 (SARS-CoV-2WK-521; [3]): 310 nM; times more excellent EC50 value as compared with PF-7321332 (SARS-CoV-2WK-521): ≥ 6 times
CC(C)(C)[C@H](NC(=O)C(F)(F)F)C(=O)N1C[C@H]2[C@@H]([C@H]1C(=O)N[C@@H](C[C@@H]1CCNC1=O)C(=O)c1nc3c(F)ccc(F)c3s1)C2(C)C [Compound 247],–,<1.0 µM,< 200 nM,> 100000 nM,–
CC(C)(C)[C@H](NC(=O)C(F)(F)F)C(=O)N1C[C@H]2[C@@H]([C@H]1C(=S)N[C@@H](C[C@@H]1CCNC1=O)C(=O)c1nc3c(F)ccc(F)c3s1)C2(C)C [Compound 247s],–,<1.0 µM,< 300 nM,> 100000 nM,–
CC1(C)[C@@H]2[C@@H](C(=O)N[C@@H](C[C@@H]3CCNC3=O)C(=O)c3nc4c(F)cccc4s3)N(C(=O)[C@H](CC(F)(F)F)NC(=O)C(F)(F)F)C[C@@H]21 [Compound 248],–,<1.0 µM,< 200 nM,> 100000 nM,–
CC1(C)[C@@H]2[C@@H](C(=S)N[C@@H](C[C@@H]3CCNC3=O)C(=O)c3nc4c(F)cccc4s3)N(C(=O)[C@H](CC(F)(F)F)NC(=O)C(F)(F)F)C[C@@H]21 [Compound 248s],–,<1.0 µM,< 300 nM,> 100000 nM,–
CC1(C)[C@@H]2[C@@H](C(=O)N[C@@H](C[C@@H]3CCNC3=O)C(=O)c3nc4c(F)cccc4s3)N(C(=O)[C@H](CCC(F)(F)F)NC(=O)C(F)(F)F)C[C@@H]21 [Compound 249],–,<1.0 µM,< 200 nM,> 100000 nM,–
CC1(C)[C@@H]2[C@@H](C(=S)N[C@@H](C[C@@H]3CCNC3=O)C(=O)c3nc4c(F)cccc4s3)N(C(=O)[C@H](CCC(F)(F)F)NC(=O)C(F)(F)F)C[C@@H]21 [Compound 249s],–,<1.0 µM,< 300 nM,> 100000 nM,–
CC(C)(F)[C@H](NC(=O)C(F)(F)F)C(=O)N1C[C@H]2[C@@H]([C@H]1C(=O)N[C@@H](C[C@@H]1CCNC1=O)C(=O)c1nc3c(F)cccc3s1)C2(C)C [Compound 250],–,<1.0 µM,< 200 nM,> 100000 nM,–
CC(C)(F)[C@H](NC(=O)C(F)(F)F)C(=O)N1C[C@H]2[C@@H]([C@H]1C(=S)N[C@@H](C[C@@H]1CCNC1=O)C(=O)c1nc3c(F)cccc3s1)C2(C)C [Compound 250s],–,<1.0 µM,< 300 nM,> 100000 nM,–
CC(C)(F)[C@H](NC(=O)C(F)(F)F)C(=O)N1C[C@H]2[C@@H]([C@H]1C(=O)N[C@@H](C[C@@H]1CCNC1=O)C(=O)c1nc3c(F)ccc(F)c3s1)C2(C)C [Compound 251],–,<1.0 µM,< 200 nM,> 100000 nM,–
CC(C)(F)[C@H](NC(=O)C(F)(F)F)C(=O)N1C[C@H]2[C@@H]([C@H]1C(=S)N[C@@H](C[C@@H]1CCNC1=O)C(=O)c1nc3c(F)ccc(F)c3s1)C2(C)C [Compound 251s],–,<1.0 µM,< 300 nM,> 100000 nM,–
"CC(C)(C)[C@H](NC(=O)C(F)(F)F)C(=O)N1C[C@H]2[C@@H]([C@H]1C(=O)N[C@@H](C[C@@H]1CCNC1=O)C(=O)c1nc3cc(F)ccc3s1)C2(C)C [Compound 272, (1R,2S,5S)-3-((S)-3,3-dimethyl-2-(2,2,2-trifluoroacetamido)butanoyl)-N-((S)-1-(5-fluorobenzo[d]thiazol-2-yl)-1-oxo-3-((S)-2-oxopyrrolidin-3-yl)propan-2-yl)-6,6-dimethyl-3-azabicyclo[3.1.0]hexane-2-carboxamide]",> 80000 nM,–,–,–,bioavailability (in vivo): 99.3%; EC50 (SARS-CoV-2WK-521; [5]): 8 nM
"CC(C)(C)[C@H](NC(=O)C(F)(F)F)C(=O)N1C[C@H]2[C@@H]([C@H]1C(=O)N[C@@H](C[C@@H]1CCNC1=O)C(=O)c1nc3ccc(F)cc3s1)C2(C)C [Compound 273, (1R,2S,5S)-3-((S)-3,3-dimethyl-2-(2,2,2-trifluoroacetamido)butanoyl)-N-((S)-1-(6-fluorobenzo[d]thiazol-2-yl)-1-oxo-3-((S)-2-oxopyrrolidin-3-yl)propan-2-yl)-6,6-dimethyl-3-azabicyclo[3.1.0]hexane-2-carboxamide]",> 80000 nM,–,–,–,EC50 (SARS-CoV-2WK-521; [5]): 52 nM
"COc1cccc2[nH]c(C(=O)N[C@@H](CC(C)C)C(=O)N[C@@H](C[C@@H]3CCNC3=O)C(=O)c3nc4ccccc4s3)cc12 [Compound 2420, reference compound]",–,–,–,–,"half-life (in vivo): ~10 min; EC50 (SARS-CoV-2WK-521; Severe acute respiratory syndrome coronavirus 2, Vero C1008, 72 h): 2700 to 3200 nM"
"CC(C)(C)[C@H](NC(=O)C(F)(F)F)C(=O)N1C[C@H]2[C@@H]([C@H]1C(=O)N[C@H](C#N)C[C@@H]1CCNC1=O)C2(C)C [PF-7321332, reference compound]",> 100000 nM,–,–,–,EC50 (SARS-CoV-2WK-521; [3]): 1900 nM; EC75 (SARS-CoV-2WK-521; [4]): 4390 nM; EC99 (SARS-CoV-2WK-521; [4]): 9.68 µM
